Row | logP | Structure (SMILES)
1 | 3.07 | Cc1ncc(CO)c(C=NNC(=O)c2cccc(Br)c2)c1O
2 | 2.11 | Cc1ncc(CO)c(C=NNC(=O)c2cccs2)c1O
3 | 3.03 | O=C(NN=Cc1ccccc1O)c1cccs1
4 | 1.19 | Cc1ncc(CO)c(C=NNC(=O)c2ccc(N)cc2)c1O
5 | 3.41 | O=C(NN=Cc1ccccc1O)c1cccc(F)c1
6 | 2.47 | COc1ccc(C(=O)NN=Cc2c(CO)cnc(C)c2O)cc1
7 | 2.91 | CC(=O)NN=Cc1c(O)ccc2ccccc12
8 | 2.67 | O=C(NN=Cc1ccccc1O)c1ccco1
9 | 2.42 | Cc1ncc(CO)c(C=NNC(=O)c2cccc(F)c2)c1O
10 | 0.65 | CC(=O)NN=Cc1c(CO)cnc(C)c1O
11 | 3.01 | O=C(NN=Cc1ccccc1O)c1ccccc1
12 | 1.14 | Cc1ncc(CO)c(C=NNC(=O)c2ccncc2)c1O
13 | 4.73 | CC(C)(C)c1ccc(C(=O)NN=Cc2ccccc2O)cc1
14 | 3.58 | O=C(NN=Cc1c(O)ccc2ccccc12)c1ccc([N+](=O)[O-])cc1
15 | 3.95 | O=C(NN=Cc1c(O)ccc2ccccc12)c1ccc(O)cc1
16 | 2.23 | Cc1ncc(CO)c(C=NNC(=O)c2ccccc2)c1O
17 | 3.34 | COc1ccc(C(=O)NN=Cc2ccccc2O)cc1
18 | 3.41 | O=C(NN=Cc1c(O)ccc2ccccc12)c1ccco1
19 | 1.89 | Cc1ncc(CO)c(C=NNC(=O)c2ccc(O)cc2)c1O

Row | logP | Structure (SMILES)
20 | 3.04 | Nc1ccc(C(=O)NN=Cc2c(O)ccc3ccccc23)cc1
21 | 2.16 | O=C(NN=Cc1ccccc1O)c1ccncc1
22 | 3.03 | O=C(NN=Cc1ccccc1O)c1ccc([N+](=O)[O-])cc1
23 | 4.06 | COc1ccc(C(=O)NN=Cc2c(O)ccc3ccccc23)cc1
24 | 2.46 | Cc1ncc(CO)c(C=NNc2ccccn2)c1O
25 | 3.91 | O=C(NN=Cc1ccccc1O)c1cccc(Br)c1
26 | 2.16 | Nc1ccc(C(=O)NN=Cc2ccccc2O)cc1
27 | 2.54 | Cc1ccc(C(=O)NN=Cc2c(CO)cnc(C)c2O)cc1
28 | 2.96 | Cc1ncc(CO)c(C=NNC(=O)c2cccc(Cl)c2)c1O
29 | 3.83 | O=C(NN=Cc1ccccc1O)c1cccc(Cl)c1
30 | 4.06 | O=C(NN=Cc1c(O)ccc2ccccc12)c1cccc(F)c1
31 | 2.56 | O=C(NN=Cc1ccccc1O)c1ccc(O)cc1
32 | 1.55 | Cc1ncc(CO)c(C=NNC(=O)c2ccc([N+](=O)[O-])cc2)c1O
33 | 1.71 | CC(=O)NN=Cc1ccccc1O
34 | 3.39 | Cc1ccc(C(=O)NN=Cc2ccccc2O)cc1
35 | 3.73 | Cc1ncc(CO)c(C=NNC(=O)c2ccc(C(C)(C)C)cc2)c1O
36 | 1.39 | Cc1ncc(CO)c(C=NNC(=O)c2ccco2)c1O
37 | 3.24 | Oc1ccccc1C=NNc1ccccn1

— the OPERA property sets (Mansouri et al. 2018)
